Read-outs that look alike come from different tables or passages of the source.
Legend:
ALK5/TGFBR1 = target: T1, ALK5/TGFBR1 (Homo sapiens, UniProt P36897); test: HotSpot kinase assay; assay type: biochemical; conditions: read-out: % Enzyme Activity (relative to DMSO controls)
T1 construct: purchased Reaction Biology Corporation

ASK1/MAP3K5 = target: T2, ASK1/MAP3K5 (Homo sapiens, UniProt Q99683); test: HotSpot kinase assay; assay type: biochemical; conditions: read-out: % Enzyme Activity (relative to DMSO controls)
T2 construct: purchased Reaction Biology Corporation

Aurora A = target: T3, Aurora A (Homo sapiens, UniProt O14965); test: HotSpot kinase assay; assay type: biochemical; conditions: read-out: % Enzyme Activity (relative to DMSO controls)
T3 construct: purchased Reaction Biology Corporation

BRK = target: T4, BRK (Homo sapiens, UniProt Q13882); test: HotSpot kinase assay; assay type: biochemical; conditions: read-out: % Enzyme Activity (relative to DMSO controls)
T4 construct: purchased Reaction Biology Corporation

BRSK2 = target: T5, BRSK2 (Homo sapiens, UniProt Q8IWQ3); test: HotSpot kinase assay; assay type: biochemical; conditions: read-out: % Enzyme Activity (relative to DMSO controls)
T5 construct: purchased Reaction Biology Corporation

CDC7/DBF4 = target: T6, CDC7/DBF4 (Homo sapiens, UniProt O00311); test: HotSpot kinase assay; assay type: biochemical; conditions: read-out: % Enzyme Activity (relative to DMSO controls)
T6 construct: purchased Reaction Biology Corporation

CDK1/cyclin E = target: T7, CDK1/cyclin E (Homo sapiens, UniProt P06493); test: HotSpot kinase assay; assay type: biochemical; conditions: read-out: % Enzyme Activity (relative to DMSO controls)
T7 construct: purchased Reaction Biology Corporation

CDK17/cyclin Y (PCTK2) = target: T8, CDK17/cyclin Y (PCTK2) (Homo sapiens, UniProt Q00537); test: HotSpot kinase assay; assay type: biochemical; conditions: read-out: % Enzyme Activity (relative to DMSO controls)
T8 construct: purchased Reaction Biology Corporation

CDK4/cyclin D3 = target: T9, CDK4/cyclin D3 (Homo sapiens, UniProt P11802); test: HotSpot kinase assay; assay type: biochemical; conditions: read-out: % Enzyme Activity (relative to DMSO controls)
T9 construct: purchased Reaction Biology Corporation

CDK7/cyclin H = target: T10, CDK7/cyclin H (Homo sapiens, UniProt P50613); test: HotSpot kinase assay; assay type: biochemical; conditions: read-out: % Enzyme Activity (relative to DMSO controls)
T10 construct: purchased Reaction Biology Corporation

CDK9/cyclin T1 = target: T11, CDK9/cyclin T1 (Homo sapiens, UniProt P50750); test: HotSpot kinase assay; assay type: biochemical; conditions: read-out: % Enzyme Activity (relative to DMSO controls)
T11 construct: purchased Reaction Biology Corporation

DYRK1B = target: T12, DYRK1B (Homo sapiens, UniProt Q9Y463); test: HotSpot kinase assay; assay type: biochemical; conditions: read-out: % Enzyme Activity (relative to DMSO controls)
T12 construct: purchased Reaction Biology Corporation

EPHA1 = target: T13, EPHA1 (Homo sapiens, UniProt P21709); test: HotSpot kinase assay; assay type: biochemical; conditions: read-out: % Enzyme Activity (relative to DMSO controls)
T13 construct: purchased Reaction Biology Corporation

FAK/PTK2 = target: T14, FAK/PTK2 (Homo sapiens, UniProt Q05397); test: HotSpot kinase assay; assay type: biochemical; conditions: read-out: % Enzyme Activity (relative to DMSO controls)
T14 construct: purchased Reaction Biology Corporation

FYN = target: T15, FYN (Homo sapiens, UniProt P06241); test: HotSpot kinase assay; assay type: biochemical; conditions: read-out: % Enzyme Activity (relative to DMSO controls)
T15 construct: purchased Reaction Biology Corporation

GRK7 = target: T16, GRK7 (Homo sapiens, UniProt Q8WTQ7); test: HotSpot kinase assay; assay type: biochemical; conditions: read-out: % Enzyme Activity (relative to DMSO controls)
T16 construct: purchased Reaction Biology Corporation

GSK3a = target: T17, GSK3a (Homo sapiens, UniProt P49840); test: HotSpot kinase assay; assay type: biochemical; conditions: read-out: % Enzyme Activity (relative to DMSO controls)
T17 construct: purchased Reaction Biology Corporation

HIPK4 = target: T18, HIPK4 (Homo sapiens, UniProt Q8NE63); test: HotSpot kinase assay; assay type: biochemical; conditions: read-out: % Enzyme Activity (relative to DMSO controls)
T18 construct: purchased Reaction Biology Corporation

LATS2 = target: T19, LATS2 (Homo sapiens, UniProt Q9NRM7); test: HotSpot kinase assay; assay type: biochemical; conditions: read-out: % Enzyme Activity (relative to DMSO controls)
T19 construct: purchased Reaction Biology Corporation

LCK = target: T20, LCK (Homo sapiens, UniProt P06239); test: HotSpot kinase assay; assay type: biochemical; conditions: read-out: % Enzyme Activity (relative to DMSO controls)
T20 construct: purchased Reaction Biology Corporation

MAK = target: T21, MAK (Homo sapiens, UniProt P20794); test: HotSpot kinase assay; assay type: biochemical; conditions: read-out: % Enzyme Activity (relative to DMSO controls)
T21 construct: purchased Reaction Biology Corporation

MARK2/PAR-1Ba = target: T22, MARK2/PAR-1Ba (Homo sapiens, UniProt Q7KZI7); test: HotSpot kinase assay; assay type: biochemical; conditions: read-out: % Enzyme Activity (relative to DMSO controls)
T22 construct: purchased Reaction Biology Corporation

MSK2/RPS6KA4 = target: T23, MSK2/RPS6KA4 (Homo sapiens, UniProt O75676); test: HotSpot kinase assay; assay type: biochemical; conditions: read-out: % Enzyme Activity (relative to DMSO controls)
T23 construct: purchased Reaction Biology Corporation

MYO3b = target: T24, MYO3b (Homo sapiens, UniProt Q8WXR4); test: HotSpot kinase assay; assay type: biochemical; conditions: read-out: % Enzyme Activity (relative to DMSO controls)
T24 construct: purchased Reaction Biology Corporation

NEK11 = target: T25, NEK11 (Homo sapiens, UniProt Q8NG66); test: HotSpot kinase assay; assay type: biochemical; conditions: read-out: % Enzyme Activity (relative to DMSO controls)
T25 construct: purchased Reaction Biology Corporation

P38d/MAPK13 = target: T26, P38d/MAPK13 (Homo sapiens, UniProt O15264); test: HotSpot kinase assay; assay type: biochemical; conditions: read-out: % Enzyme Activity (relative to DMSO controls)
T26 construct: purchased Reaction Biology Corporation

PAK6 = target: T27, PAK6 (Homo sapiens, UniProt Q9NQU5); test: HotSpot kinase assay; assay type: biochemical; conditions: read-out: % Enzyme Activity (relative to DMSO controls)
T27 construct: purchased Reaction Biology Corporation

PYK2 = target: T28, PYK2 (Homo sapiens, UniProt Q14289); test: HotSpot kinase assay; assay type: biochemical; conditions: read-out: % Enzyme Activity (relative to DMSO controls)
T28 construct: purchased Reaction Biology Corporation

RET = target: T29, RET (Homo sapiens, UniProt P07949); test: HotSpot kinase assay; assay type: biochemical; conditions: read-out: % Enzyme Activity (relative to DMSO controls)
T29 construct: purchased Reaction Biology Corporation

SBK1 = target: T30, SBK1 (Homo sapiens, UniProt Q52WX2); test: HotSpot kinase assay; assay type: biochemical; conditions: read-out: % Enzyme Activity (relative to DMSO controls)
T30 construct: purchased Reaction Biology Corporation

SRPK2 = target: T31, SRPK2 (Homo sapiens, UniProt P78362); test: HotSpot kinase assay; assay type: biochemical; conditions: read-out: % Enzyme Activity (relative to DMSO controls)
T31 construct: purchased Reaction Biology Corporation

STK32B/YANK2 = target: T32, STK32B/YANK2 (Homo sapiens, UniProt Q9NY57); test: HotSpot kinase assay; assay type: biochemical; conditions: read-out: % Enzyme Activity (relative to DMSO controls)
T32 construct: purchased Reaction Biology Corporation

SYK = target: T33, SYK (Homo sapiens, UniProt P43405); test: HotSpot kinase assay; assay type: biochemical; conditions: read-out: % Enzyme Activity (relative to DMSO controls)
T33 construct: purchased Reaction Biology Corporation

TAK1 = target: T34, TAK1 (Homo sapiens, UniProt O43318); test: HotSpot kinase assay; assay type: biochemical; conditions: read-out: % Enzyme Activity (relative to DMSO controls)
T34 construct: purchased Reaction Biology Corporation

TAOK2/TAO1 = target: T35, TAOK2/TAO1 (Homo sapiens, UniProt Q9UL54); test: HotSpot kinase assay; assay type: biochemical; conditions: read-out: % Enzyme Activity (relative to DMSO controls)
T35 construct: purchased Reaction Biology Corporation

TNIK = target: T36, TNIK (Homo sapiens, UniProt Q9UKE5); test: HotSpot kinase assay; assay type: biochemical; conditions: read-out: % Enzyme Activity (relative to DMSO controls)
T36 construct: purchased Reaction Biology Corporation

YSK4/MAP3K19 = target: T37, YSK4/MAP3K19 (Homo sapiens, UniProt Q56UN5); test: HotSpot kinase assay; assay type: biochemical; conditions: read-out: % Enzyme Activity (relative to DMSO controls)
T37 construct: purchased Reaction Biology Corporation

ZIPK/DAPK3 = target: T38, ZIPK/DAPK3 (Homo sapiens, UniProt O43293); test: HotSpot kinase assay; assay type: biochemical; conditions: read-out: % Enzyme Activity (relative to DMSO controls)
T38 construct: purchased Reaction Biology Corporation

EIF2AK4 = target: T39, EIF2AK4 (Homo sapiens, UniProt Q9P2K8); test: HotSpot kinase assay; assay type: biochemical; conditions: read-out: % Enzyme Activity (relative to DMSO controls)
T39 construct: purchased Reaction Biology Corporation

PLSCR1 [1] = test: PLSCR1 phosphorylation (IP/western), HSV-2 infected HaCaT cells; assay type: cell-based, human; conditions: 10 μM, 30 min
PLSCR1 [2] = assay type: cell-based, monkey; conditions: 30 min; drugs 10 μM, immunoglobulins 10 μg/ml
HaCat cells = test: western blot for cleaved PARP-1 or cleaved caspase 8; conditions: 0.1, 1, or 10 µM, 8 h

T30 sequence (Q52WX2 whole entry): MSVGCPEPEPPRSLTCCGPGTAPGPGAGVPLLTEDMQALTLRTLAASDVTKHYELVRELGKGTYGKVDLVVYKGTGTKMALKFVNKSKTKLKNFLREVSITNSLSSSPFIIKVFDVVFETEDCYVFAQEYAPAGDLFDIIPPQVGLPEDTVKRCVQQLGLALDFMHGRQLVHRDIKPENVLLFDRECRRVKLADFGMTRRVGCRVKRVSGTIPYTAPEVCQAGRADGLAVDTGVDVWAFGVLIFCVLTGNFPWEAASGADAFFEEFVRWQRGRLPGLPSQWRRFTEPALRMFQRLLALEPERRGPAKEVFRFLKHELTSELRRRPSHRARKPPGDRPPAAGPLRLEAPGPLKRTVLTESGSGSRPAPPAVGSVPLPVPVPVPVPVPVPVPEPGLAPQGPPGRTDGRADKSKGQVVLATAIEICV
T25 sequence (Q8NG66 whole entry): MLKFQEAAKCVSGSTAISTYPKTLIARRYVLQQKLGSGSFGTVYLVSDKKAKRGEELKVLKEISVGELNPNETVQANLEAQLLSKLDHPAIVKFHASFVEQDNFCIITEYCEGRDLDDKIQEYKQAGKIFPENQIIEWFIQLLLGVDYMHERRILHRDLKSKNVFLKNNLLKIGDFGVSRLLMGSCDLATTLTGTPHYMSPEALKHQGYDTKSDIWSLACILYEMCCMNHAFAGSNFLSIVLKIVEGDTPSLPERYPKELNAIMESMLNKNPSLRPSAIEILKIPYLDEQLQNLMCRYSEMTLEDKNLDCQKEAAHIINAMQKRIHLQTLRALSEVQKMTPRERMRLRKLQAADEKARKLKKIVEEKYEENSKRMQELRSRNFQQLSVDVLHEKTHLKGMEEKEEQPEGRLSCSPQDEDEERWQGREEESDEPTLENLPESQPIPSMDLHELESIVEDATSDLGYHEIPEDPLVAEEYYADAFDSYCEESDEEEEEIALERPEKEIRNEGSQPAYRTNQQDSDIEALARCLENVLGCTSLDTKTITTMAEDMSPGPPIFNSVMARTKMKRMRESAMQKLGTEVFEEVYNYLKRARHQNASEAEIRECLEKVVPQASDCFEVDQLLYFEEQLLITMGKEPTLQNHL
T1 sequence (P36897 34-503): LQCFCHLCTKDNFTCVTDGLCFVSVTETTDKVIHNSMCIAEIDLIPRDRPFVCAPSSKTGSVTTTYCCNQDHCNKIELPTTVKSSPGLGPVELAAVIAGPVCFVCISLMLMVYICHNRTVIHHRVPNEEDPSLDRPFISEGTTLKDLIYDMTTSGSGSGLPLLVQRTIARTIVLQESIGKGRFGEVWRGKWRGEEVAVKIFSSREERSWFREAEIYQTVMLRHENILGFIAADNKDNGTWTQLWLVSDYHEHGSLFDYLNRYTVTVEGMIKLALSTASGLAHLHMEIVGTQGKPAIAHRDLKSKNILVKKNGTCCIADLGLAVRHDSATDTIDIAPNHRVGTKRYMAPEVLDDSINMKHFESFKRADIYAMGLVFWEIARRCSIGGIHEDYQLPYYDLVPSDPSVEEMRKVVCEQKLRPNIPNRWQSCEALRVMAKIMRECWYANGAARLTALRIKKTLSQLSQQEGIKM
T7 sequence (P06493 whole entry): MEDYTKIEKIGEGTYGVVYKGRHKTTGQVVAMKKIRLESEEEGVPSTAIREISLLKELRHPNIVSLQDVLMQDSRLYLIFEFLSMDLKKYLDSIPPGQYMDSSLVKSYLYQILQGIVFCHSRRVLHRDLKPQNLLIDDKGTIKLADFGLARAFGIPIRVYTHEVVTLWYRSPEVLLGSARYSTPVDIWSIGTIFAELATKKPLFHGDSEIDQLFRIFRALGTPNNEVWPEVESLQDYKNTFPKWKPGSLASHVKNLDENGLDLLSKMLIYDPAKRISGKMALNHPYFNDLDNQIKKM
T7 sequence (P24864 whole entry, further chain): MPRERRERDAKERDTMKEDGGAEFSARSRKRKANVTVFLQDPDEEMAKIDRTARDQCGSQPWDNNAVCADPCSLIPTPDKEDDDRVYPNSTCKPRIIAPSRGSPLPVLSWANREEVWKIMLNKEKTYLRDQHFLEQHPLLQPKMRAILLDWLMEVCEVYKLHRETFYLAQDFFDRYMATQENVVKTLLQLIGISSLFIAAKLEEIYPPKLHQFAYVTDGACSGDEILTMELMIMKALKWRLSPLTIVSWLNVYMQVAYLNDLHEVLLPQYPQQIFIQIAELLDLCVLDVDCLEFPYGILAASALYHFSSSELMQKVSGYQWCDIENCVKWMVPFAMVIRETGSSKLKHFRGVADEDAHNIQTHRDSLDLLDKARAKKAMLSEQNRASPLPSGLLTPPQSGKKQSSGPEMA
T12 sequence (Q9Y463 whole entry): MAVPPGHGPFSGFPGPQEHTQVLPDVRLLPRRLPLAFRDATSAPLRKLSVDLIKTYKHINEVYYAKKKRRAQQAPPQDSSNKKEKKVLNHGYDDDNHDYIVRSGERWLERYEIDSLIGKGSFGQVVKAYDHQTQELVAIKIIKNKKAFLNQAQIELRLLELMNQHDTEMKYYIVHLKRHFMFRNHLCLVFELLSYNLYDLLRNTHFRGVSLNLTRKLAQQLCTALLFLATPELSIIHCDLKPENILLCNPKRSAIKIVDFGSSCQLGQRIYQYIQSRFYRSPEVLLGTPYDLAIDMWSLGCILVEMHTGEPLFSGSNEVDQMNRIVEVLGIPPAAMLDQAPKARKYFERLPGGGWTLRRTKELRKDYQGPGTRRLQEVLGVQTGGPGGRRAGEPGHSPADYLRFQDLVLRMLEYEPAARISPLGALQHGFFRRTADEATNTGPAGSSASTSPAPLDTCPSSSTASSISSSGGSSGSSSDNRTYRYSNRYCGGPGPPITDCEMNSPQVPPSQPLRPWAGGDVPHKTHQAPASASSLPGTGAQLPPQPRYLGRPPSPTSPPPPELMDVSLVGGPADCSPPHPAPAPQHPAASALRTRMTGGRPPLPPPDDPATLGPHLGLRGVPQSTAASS
T31 sequence (P78362 whole entry): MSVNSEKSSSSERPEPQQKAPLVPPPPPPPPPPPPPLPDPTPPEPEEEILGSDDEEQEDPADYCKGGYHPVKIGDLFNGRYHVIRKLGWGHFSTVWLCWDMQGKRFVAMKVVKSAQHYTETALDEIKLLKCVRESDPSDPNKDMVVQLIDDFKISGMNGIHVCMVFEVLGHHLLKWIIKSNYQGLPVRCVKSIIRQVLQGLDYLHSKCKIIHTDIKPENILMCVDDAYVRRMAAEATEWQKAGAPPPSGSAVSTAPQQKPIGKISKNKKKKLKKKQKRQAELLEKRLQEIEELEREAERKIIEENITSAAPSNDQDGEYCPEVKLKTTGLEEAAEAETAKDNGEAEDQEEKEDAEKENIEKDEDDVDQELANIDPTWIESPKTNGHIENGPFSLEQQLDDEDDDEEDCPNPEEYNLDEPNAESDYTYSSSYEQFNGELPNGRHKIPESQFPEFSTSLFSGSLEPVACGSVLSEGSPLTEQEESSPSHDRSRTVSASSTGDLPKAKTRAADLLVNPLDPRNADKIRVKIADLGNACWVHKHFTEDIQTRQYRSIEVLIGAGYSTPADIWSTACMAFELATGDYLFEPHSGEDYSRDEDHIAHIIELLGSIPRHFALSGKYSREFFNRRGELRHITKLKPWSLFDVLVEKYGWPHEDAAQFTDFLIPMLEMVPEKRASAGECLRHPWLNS
T2 sequence (Q99683 whole entry): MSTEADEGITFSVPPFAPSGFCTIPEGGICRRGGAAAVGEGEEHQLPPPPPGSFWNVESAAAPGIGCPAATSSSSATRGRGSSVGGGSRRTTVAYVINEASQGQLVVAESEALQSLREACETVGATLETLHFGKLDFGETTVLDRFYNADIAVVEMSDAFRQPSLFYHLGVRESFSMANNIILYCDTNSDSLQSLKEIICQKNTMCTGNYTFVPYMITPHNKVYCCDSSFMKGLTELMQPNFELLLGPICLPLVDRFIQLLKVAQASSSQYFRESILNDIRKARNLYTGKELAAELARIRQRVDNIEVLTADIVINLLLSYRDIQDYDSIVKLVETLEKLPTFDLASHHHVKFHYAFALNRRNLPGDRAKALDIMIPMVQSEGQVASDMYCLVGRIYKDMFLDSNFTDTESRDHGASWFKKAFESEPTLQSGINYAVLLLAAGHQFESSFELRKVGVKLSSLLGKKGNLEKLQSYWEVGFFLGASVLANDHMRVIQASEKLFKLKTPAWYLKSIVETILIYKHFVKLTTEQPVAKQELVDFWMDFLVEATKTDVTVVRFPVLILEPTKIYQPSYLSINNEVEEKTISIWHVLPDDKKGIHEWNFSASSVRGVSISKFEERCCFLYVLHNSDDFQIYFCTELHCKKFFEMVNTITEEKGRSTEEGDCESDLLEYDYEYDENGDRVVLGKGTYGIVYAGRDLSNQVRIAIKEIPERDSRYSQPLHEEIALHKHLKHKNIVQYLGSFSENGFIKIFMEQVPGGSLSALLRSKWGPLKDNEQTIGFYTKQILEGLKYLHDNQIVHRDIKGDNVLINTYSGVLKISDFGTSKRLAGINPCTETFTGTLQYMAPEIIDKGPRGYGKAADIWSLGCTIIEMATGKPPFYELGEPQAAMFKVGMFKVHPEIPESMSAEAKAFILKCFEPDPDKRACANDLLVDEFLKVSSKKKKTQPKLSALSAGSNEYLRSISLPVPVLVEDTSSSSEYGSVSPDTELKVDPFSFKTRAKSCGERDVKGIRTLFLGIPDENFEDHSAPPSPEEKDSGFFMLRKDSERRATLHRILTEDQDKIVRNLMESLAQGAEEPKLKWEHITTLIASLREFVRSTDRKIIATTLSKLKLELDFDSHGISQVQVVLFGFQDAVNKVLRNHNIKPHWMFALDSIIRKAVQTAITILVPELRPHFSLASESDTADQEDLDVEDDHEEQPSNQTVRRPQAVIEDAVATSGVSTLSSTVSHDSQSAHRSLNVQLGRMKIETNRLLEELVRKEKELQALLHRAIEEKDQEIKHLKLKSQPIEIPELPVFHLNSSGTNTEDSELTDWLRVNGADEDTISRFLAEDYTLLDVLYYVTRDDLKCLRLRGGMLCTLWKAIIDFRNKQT

In the case of `CO[C@@H]1[C@H](N(C)C(=O)CCC(=O)NCc2cn(CCCS(=O)(=O)O)nn2)C[C@H]2O[C@]1(C)n1c3ccccc3c3c4c(c5c6ccccc6n2c5c31)C(=O)NC4` [CIMSS], the remaining activity at 10 µM (ALK5/TGFBR1) is reported as 86.6%, the remaining activity at 10 µM (ASK1/MAP3K5) is reported as 6.25% and the remaining activity at 10 µM (Aurora A) is reported as 1.92%. For the same molecule, the remaining activity at 10 µM (BRK) was 25.5%, the remaining activity at 10 µM (BRSK2) was 1.66% and the remaining activity at 10 µM (CDC7/DBF4) was 3.98%. It also gave a remaining activity at 10 µM (CDK1/cyclin E) of 18%, a remaining activity at 10 µM (CDK17/cyclin Y (PCTK2)) of 54.2% and a remaining activity at 10 µM (CDK4/cyclin D3) of 85.6%. It also gave a remaining activity at 10 µM (CDK7/cyclin H) of 65.6%, a remaining activity at 10 µM (CDK9/cyclin T1) of 13.1% and a remaining activity at 10 µM (DYRK1B) of 0.41%. It also gave a remaining activity at 10 µM (EPHA1) of 31.5%, a remaining activity at 10 µM (FAK/PTK2) of 15.5% and a remaining activity at 10 µM (FYN) of 2.59%. The remaining activity at 10 µM (GRK7) was 7.19%, the remaining activity at 10 µM (GSK3a) was 2.72% and the remaining activity at 10 µM (HIPK4) was 10.7%. For the same molecule, the remaining activity at 10 µM (LATS2) was 6.54%, the remaining activity at 10 µM (LCK) was 3.41% and the remaining activity at 10 µM (MAK) was 13.2%. For the same molecule, the remaining activity at 10 µM (MARK2/PAR-1Ba) was 2.38%, the remaining activity at 10 µM (MSK2/RPS6KA4) was 2.11% and the remaining activity at 10 µM (MYO3b) was 4.81%. The remaining activity at 10 µM (NEK11) was 52%, the remaining activity at 10 µM (P38d/MAPK13) was 74.7% and the remaining activity at 10 µM (PAK6) was 9.79%. The remaining activity at 10 µM (PYK2) was 2.4%, the remaining activity at 10 µM (RET) was 2.1% and the remaining activity at 10 µM (SBK1) was 78.8%. It also gave a remaining activity at 10 µM (SRPK2) of 8.02%, a remaining activity at 10 µM (STK32B/YANK2) of 0.96% and a remaining activity at 10 µM (SYK) of 0.87%. It also gave a remaining activity at 10 µM (TAK1) of 7.2%, a remaining activity at 10 µM (TAOK2/TAO1) of 36.3% and a remaining activity at 10 µM (TNIK) of 1.22%. The remaining activity at 10 µM (YSK4/MAP3K19) was 3.4%, the remaining activity at 10 µM (ZIPK/DAPK3) was 6.48% and the remaining activity at 10 µM (EIF2AK4) was 9.5%. The “Phosphorylation of PLSCR1” value (PLSCR1 [1]) was “not”, the “Phosphorylation of PLSCR1” value (PLSCR1 [2]) was “preserved” and the “levels of phosphorylated Akt (serine 473 and threonine 308) in non-permeabilized cells” value (Akt, PDPK1, PLCγ; 10µM) was “reduce levels”. For the same molecule, the “phosphorylation of PDPK1 and PLCγ” value (Akt, PDPK1, PLCγ; 10 µM, 15 and 30 min following viral infection) was “inhibited” and the “PARP-1 or caspase 8 cleavage” value (HaCat cells) was “did not induce”.

Source: PMC9569420 (Communications Biology, 2022)
